The text below walks through data of patent US20090214426A1, “Assay Method” (priority 2004, published 2009).

The structures appear in SMILES notation. “Also recorded” adds a separate entry of the source.

The test system of assay [1] is CCI rats. Description: Beam walking test in CCI rats. The assay is classed as in vivo, rat. Conditions: for efficacy on reversing beam walking impairments: summary statement, dose not stated. The method, then: (§1) The CCI of sciatic nerve is performed as previously described by Bennett and Xie (1988). Animals are anaesthetized with a 2% isofluorane/O2 mixture maintained during surgery via a nose cone and the common sciatic nerve is exposed at the middle of the right thigh by blunt dissection through biceps femoris. Proximal to the sciatic trifurcation, about 7 mm of nerve is freed of adhering tissue and 4 ligatures (4-0 silk) are tied loosely around it with about 1 mm spacing. Ligatures are tied such that the circulation through the superficial epineural vasculature is retarded but not arrested. The incision is then closed in layers and the wound treated with topical antibiotics. In the sham-operated group an identical dissection is performed on the ipsilateral paw except the sciatic nerve is not ligated.
The Beam walking apparatus consists of a 1.5 m long beam with a 2.5×2.5 cm square cross section, elevated 75 cm above the floor. The test is performed in dim light conditions (18 lux). A light source (520 lux) is placed at the start-end of the beam while a dark box at the other side (Goldstein & Davis, 1990, J Neurosci Methods; 31:101-107). Rats are trained over a period of 2 days to cross the beam. On the day of the test an additional training section is performed before the proper test trial was performed. […] Rats that cross the beam without using the ipsilateral paw are given a maximal number of foot slips.
Starting from 3 weeks post surgery, CCI rats are selected based on their performances. Only those showing a number of foot slips of 2 or above are selected and used for the pharmacological validation of the test. A group of naïve CD rats are treated with vehicle and used as positive controls. […]

The subject of assay [2] is CCI rats. Briefly: Open field test in CCI rats. Type of assay: in vivo, rat. The settings on record: for reversal of pain-related anxiety-like behaviour of CCI rats: summary statement, dose not stated. The method, then: as §1
(§2) The spontaneous locomotor activity of rats in an open field is monitored for 30 minutes in a 70×70 cm dark arena (Prut ans Beizung, 2003, Eur J Pharmacol. 463:3-33). Each animal was placed in the centre of the arena and a video camera recorded movement of the animal. Four rats are recorded simultaneously in four different cages. Data are collected and analysed by Ethovision 3.0 software (Noldus IT, Netherdland) and the exploratory behaviour is expressed as number of entries in the central area of the arena (23×23 cm).
To measure the anxiety-like behaviour in CCI rats the open field test is carried out in normal light conditions (100 Lux).
For a pharmacological validation of the model, CCI rats with a poor exploratory activity (entries≦6) are pre selected in the open field and a week later treated with diazepam (1 and 3 mg/kg, i.p.), tramadol (30 mpk, p.o.) or gabapentin (30-100 mg/kg, p.o.). Naïve CD vehicle-treated rats are used as positive control.

For assay [3], the system named is CCI rats. Description: Rota rod test in CCI rats. The assay is classed as in vivo, rat. Conditions: analgesic doses; selected rats with mean performance <80 seconds; data not shown. The method, then: as §1
The rota rod test consists of 4 rotatable drums divided by flanges with a motor-driven drum which is capable of acceleration (Ugo Basile, Comerio, VA, Italy). For a given trial, a rat is placed on the rotating rod and the rotation speed is accelerated from 4 to 16 revolutions per minute (rpm) in 2 minutes. The time of maximal performance is set at 120 seconds (Voikar V et al, 2001, Physiol Behav., 2001; 72:271-81). […]

Another assay deals with fibromyalgia patients. The settings on record: randomised controlled clinical trials (Mease 2003); cited from earlier work.
The subject of assay [4] is CCI rats. Description: Object recognition test in CCI rats. Type of assay: in vivo, rat. Conditions: tramadol 100 mg/kg po, 3.5 hours post familiarization, tested 30 minutes later. The method, then: as §1
The Object Recognition test was performed as described by Ennaceur and Delacour (1988). The apparatus consisted of a black circular arena 55 cm in diameter with 50 cm black walls. […]
Each animal was trained prior to testing; this involved handling and habituation of the rat to the arena for 5 minutes per session, twice a day for three consecutive days. […] The distance moved in the arena and the time spent exploring each object during familiarization and sample phases were recorded manually and automatically, respectively by the videotracking system (Noldus Ethovision 3.0, Netherland). […]

Assay [5] deals with patients with diabetic neuropathy and post herpetic neuralgia. Conditions: randomised controlled clinical trials (Backonja 1998; Rowbotham 1998); cited from earlier work.
In the next assay the test system is CD naïve rat. Briefly: Open field test in naïve rats (anxiogenic validation). The assay is classed as in vivo. The method, then:
as §2
To measure the anxiety-like behaviour in CCI rats the open field test is carried out in normal light conditions (100 Lux). […] To confirm that the environmental conditions we set up, could let us measure an anxiety-like behaviour, the activity of the anxiogenic compound mCPP was tested in CD naïve rat.

Turning to `CN(C)CCC=C1c2ccccc2CCc2ccccc21` [Amitriptyline], the “neuropathic rats performance in the beam walking task” value in the assay with CCI rats [1] (amitriptyline 2 mg/kg (FIG. 2C)) and in the assay with CCI rats [1] (amitriptyline 20 mg/kg (data not shown)) was “did not improve” throughout. In addition, the “efficacy on reversing beam walking impairments” value (from here on “efficacy”) in the assay on CCI rats [1] is recorded as “does not”.

For the compound `CN1C(=O)CN=C(c2ccccc2)c2cc(Cl)ccc21` [Diazepam], the “pain-related anxiety-like behaviour of CCI rats (entries in centre)” value in the assay with CCI rats [2] (diazepam 1 mg/kg IP, 30 minutes before the test (FIG. 5A)) was “did not”; with CCI rats [2] (diazepam 3 mg/kg (higher dose, data not shown)), “did not”. Besides, in the assay with CCI rats [2], the “reversal of pain-related anxiety-like behaviour of CCI rats” value (“reversal” for short) was “does not reverse”.

For `CN1CC[C@]23c4c5ccc(O)c4O[C@H]2[C@@H](O)C=C[C@H]3[C@H]1C5` [Morphine], in the assay with CCI rats [1] (morphine 1 mg/kg s.c. (lower dose)), the “rats performance in the beam walking test” value is “not statistically different from the control value”. Further, the “number of foot slips” value in the assay on CCI rats [1] (morphine 3 mg/kg s.c. (higher dose), 30 minutes post dosing, vs 6±1 baseline, p<0.05) came to 3±1; in the assay with CCI rats [1] (morphine 3 mg/kg s.c. (higher dose), 1 hour post dosing, vs 5±1 baseline, p<0.05), 2±1. Besides, the “efficacy” value in the assay on CCI rats [1] is “show efficacy”. For the same compound, the “rota rod performance of neuropathic rats” value in the assay with CCI rats [3] is reported as “did not improve; also recorded: did not showed improvement”.

Regarding `CC(C)C[C@H](CN)CC(=O)O` [Pregabalin], the “QoL deficit of fibromyalgia patients” value with fibromyalgia patients was “showed efficacy”.

On to `COc1cccc(C2(O)CCCCC2CN(C)C)c1` (stereo not shown) [Tramadol], for which the “efficacy” value in the assay on CCI rats [1] is “show efficacy”. Also, the “performance of rats in the beam walking test” value in the assay on CCI rats [1] (tramadol 30 mg/kg p.o.) is listed as “not significantly different from CCI controls”. Further, in the assay with CCI rats [1] (tramadol 100 mg/kg p.o. (higher dose), 1 hour post drug administration, vs 6±1 CCI vehicle-treated group, p<0.01), the “number of foot slips” value is on record as 1±1. In addition, in the assay with CCI rats [1] (tramadol 30-100 mg/kg p.o.), the “ability of CCI rats to cross the beam” value was “dose dependently improves”. Moreover, the “rota rod performance of neuropathic rats” value in the assay on CCI rats [3] is “did not improve; also recorded: did not showed improvement”. The “reversal” value in the assay on CCI rats [2] was “does not reverse”. Moreover, the “pain-related anxiety-like behaviour of CCI rats (entries in centre)” value in the assay with CCI rats [2] (tramadol 30 mg/kg PO, 30 minutes before the test (FIG. 5A)) is “did not”; in the assay on CCI rats [2] (tramadol 100 mg/kg (higher dose, data not shown)), “did not”. Moreover, the “cognitive dysfunction (memory/attention deficit) of neuropathic rats” value in the assay on CCI rats [4] was “reversed”. Further, the “discrimination index compared to vehicle-treated CCI rats” value in the assay with CCI rats [4] (P<0.01) is listed as “significant increase”.

For the compound `NCC1(CC(=O)O)CCCCC1` [gabapentin], the “number of entries in the centre of the open field compared to CCI vehicle-treated group” value in the assay on CCI rats [2] (gabapentin 30 mg/kg p.o.) is on record as “increased”. Besides, in the assay on CCI rats [2] (gabapentin 100 mg/kg p.o.), the “anxiety-like behaviour of injured rats” value is recorded as “completely reversed”. Moreover, the “number of entries in the centre of the open field” value in the assay on CCI rats [2] (gabapentin 100 mg/kg p.o., 1 hour before the test, vs 14±2 naïve vehicle-treated group, NS) is 12±2. Besides, the “exploratory activity of neuropathic rats” value in the assay on CCI rats [2] (gabapentin 30-100 mg/kg p.o.) is listed as “improved”. Further, the “reversal” value with CCI rats [2] was “does”. Besides, in assay [5], the QoL of patients result is given as “demonstrated an improvement”.

Turning to `Clc1cccc(N2CCNCC2)c1` [mCPP], the “exploratory activity (number of entries)” value in the assay with CD naïve rat (mCPP 1-3 mg/kg i.p.) is given as “dose-dependent decrease”. Moreover, the “number of entries in the centre of the arena” value in the assay on CD naïve rat (mCPP higher dose (3 mg/kg) i.p., vs 13±3 vehicle-treated) worked out at 5±2. In the assay with CD naïve rat (mCPP, compared to 16% in the control group), the “rats that explored the centre less than 6 times” value is “Seventy-five”.
